# Reference: paper PMC4220732 (Frontiers in Cellular and Infection Microbiology, 2014)
# Target: T1, PefR (GAS PefR) (Streptococcus pyogenes, UniProt Q9A1K6)
# T1 construct: gene SPy_0228; full ORF, N-terminal 6xHis tag (pRham N-His, pAJS11), tag cleavage not mentioned; expressed in E. coli (E. cloni 10G); as purified carries some heme
# Assay: UV-visible absorbance titration at […] nm, linear fit
# Assay type: binding
# T1 sequence (Q9A1K6 entry or part of it): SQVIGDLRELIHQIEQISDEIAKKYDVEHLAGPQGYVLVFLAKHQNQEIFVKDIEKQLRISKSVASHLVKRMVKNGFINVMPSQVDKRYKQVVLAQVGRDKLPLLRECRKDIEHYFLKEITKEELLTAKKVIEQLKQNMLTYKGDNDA
compound,measurement,value
C=CC1=C(C)c2cc3[nH]c(cc4nc(cc5[nH]c(cc1n2)c(C)c5CCC(=O)O)C(CCC(=O)O)=C4C)c(C)c3C=C [PPIX],Kd,9 µM
